For the assay, the target named is T1, OsGID1 with SLR1 (Oryza sativa, UniProt Q6L545).
T1 sequence (Q6L545 1-354): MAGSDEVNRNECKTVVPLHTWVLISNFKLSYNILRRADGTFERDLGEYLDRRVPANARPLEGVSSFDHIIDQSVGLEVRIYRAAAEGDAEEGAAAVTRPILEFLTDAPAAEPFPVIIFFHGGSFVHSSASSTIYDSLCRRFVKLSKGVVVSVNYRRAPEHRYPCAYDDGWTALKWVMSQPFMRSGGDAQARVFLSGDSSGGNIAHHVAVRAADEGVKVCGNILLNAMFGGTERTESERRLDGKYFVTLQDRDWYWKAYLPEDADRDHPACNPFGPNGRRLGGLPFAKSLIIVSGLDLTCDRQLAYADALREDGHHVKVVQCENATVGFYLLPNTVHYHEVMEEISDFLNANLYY
T1 sequence (Q7G7J6 1-625 partner): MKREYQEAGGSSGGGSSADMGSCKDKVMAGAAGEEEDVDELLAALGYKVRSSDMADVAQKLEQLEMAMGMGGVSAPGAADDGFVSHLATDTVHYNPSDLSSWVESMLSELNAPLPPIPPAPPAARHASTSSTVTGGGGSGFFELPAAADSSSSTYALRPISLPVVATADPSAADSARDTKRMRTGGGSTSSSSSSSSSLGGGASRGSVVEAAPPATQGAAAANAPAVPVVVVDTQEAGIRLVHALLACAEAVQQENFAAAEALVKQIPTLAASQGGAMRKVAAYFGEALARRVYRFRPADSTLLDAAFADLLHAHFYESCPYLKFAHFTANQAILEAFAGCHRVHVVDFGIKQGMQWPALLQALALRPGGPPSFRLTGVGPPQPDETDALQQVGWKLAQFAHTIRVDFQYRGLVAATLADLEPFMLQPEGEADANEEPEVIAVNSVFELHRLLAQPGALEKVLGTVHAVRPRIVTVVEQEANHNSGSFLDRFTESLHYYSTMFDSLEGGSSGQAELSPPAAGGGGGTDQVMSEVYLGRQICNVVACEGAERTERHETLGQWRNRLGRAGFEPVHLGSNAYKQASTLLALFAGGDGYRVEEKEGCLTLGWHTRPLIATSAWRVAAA
Kind of assay: SPR. The class given is binding.

These results are taken from article PMC6099883 (Proceedings of the National Academy of Sciences of the …, 2018).

pKd: −log10 of the molar value.

Regarding `C=C1C[C@]23C[C@@]1(O)CC[C@H]2[C@@]12CC[C@H](O)[C@@](C)(C(=O)O1)[C@H]2[C@@H]3C(=O)O` [GA1], the pKd (in general, the negative decadic logarithm of the Kd, by convention in mol/L) is 6.52.

`C=C1C[C@]23C[C@@]1(O)CC[C@H]2[C@@]12C=C[C@H](O)[C@@](C)(C(=O)O1)[C@H]2[C@@H]3C(=O)O` [GA3] showed a pKd of 6.53.
